According to ChEMBL document CHEMBL4152362, “Discovery of DS-6930, a potent selective PPARγ modulator. Part II: Lead optimization” (Bioorg Med Chem, 2018):
≈ marks a conversion by molar mass, not a printed value. Calls of active or inactive are those of the source. The calls are words filed in the database; no cut-off is given here.

Legend:
[1] = Metabolic stability in human liver microsomes after 0.5 hrs; format: ADME, microsome; settings: read-out: Stability
[2] = target: T1, Peroxisome proliferator-activated receptor gamma (Homo sapiens, UniProt P37231); experiment: Agonist activity at recombinant human GAL4-DBD fused PPARgamma LBD expressed in COS7 cells after 24 hrs by luciferase reporter gene assay; format: cell-based
T1 sequence (P37231 whole entry): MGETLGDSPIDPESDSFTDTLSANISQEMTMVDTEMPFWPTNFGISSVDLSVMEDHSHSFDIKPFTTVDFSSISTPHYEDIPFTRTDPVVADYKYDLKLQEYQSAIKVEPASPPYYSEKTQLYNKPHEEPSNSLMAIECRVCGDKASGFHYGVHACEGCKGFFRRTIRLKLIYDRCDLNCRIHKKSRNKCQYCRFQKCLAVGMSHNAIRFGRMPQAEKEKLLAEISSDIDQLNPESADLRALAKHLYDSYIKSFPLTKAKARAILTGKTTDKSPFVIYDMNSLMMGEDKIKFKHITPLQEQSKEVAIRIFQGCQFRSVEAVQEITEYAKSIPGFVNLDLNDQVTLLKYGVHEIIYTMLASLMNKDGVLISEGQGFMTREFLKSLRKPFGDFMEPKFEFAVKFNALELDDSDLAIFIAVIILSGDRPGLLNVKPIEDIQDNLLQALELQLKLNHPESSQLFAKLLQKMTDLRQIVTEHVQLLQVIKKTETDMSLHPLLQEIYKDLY

[3] = Apparent permeability of the compound after 4 hrs by PAMPA; format: ADME
[4] = 1-octanol/PBS distribution co-efficient, log D of the compound at […] at pH 7.4 after 30 mins by HPLC-MS/MS method; format: physicochemical
[5] = target: T2, Peroxisome proliferator-activated receptor delta (Homo sapiens) (UniProt Q03181); experiment: Agonist activity at PPARdelta (unknown origin) at 10 uM
T2 sequence (whole entry): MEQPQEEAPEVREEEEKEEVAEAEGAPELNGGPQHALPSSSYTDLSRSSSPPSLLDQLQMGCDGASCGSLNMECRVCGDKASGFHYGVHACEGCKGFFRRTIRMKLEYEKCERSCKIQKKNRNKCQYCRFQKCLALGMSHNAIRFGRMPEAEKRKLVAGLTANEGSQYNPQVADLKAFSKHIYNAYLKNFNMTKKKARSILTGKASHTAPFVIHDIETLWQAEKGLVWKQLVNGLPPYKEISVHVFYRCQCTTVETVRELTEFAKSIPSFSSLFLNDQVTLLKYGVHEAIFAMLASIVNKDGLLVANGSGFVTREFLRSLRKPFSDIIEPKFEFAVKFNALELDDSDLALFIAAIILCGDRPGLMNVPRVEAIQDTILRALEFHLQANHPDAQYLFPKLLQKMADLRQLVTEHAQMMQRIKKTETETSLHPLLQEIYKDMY

[6] = target: T3, Peroxisome proliferator-activated receptor alpha (Homo sapiens) (UniProt Q07869); experiment: Agonist activity at recombinant human GAL4-DBD fused PPARalpha LBD expressed in COS7 cells at 10 uM after 24 hrs by luciferase reporter gene assay relative to 2-(4-tert-Butylphenoxy)-3-[4-[2-[(4-pyridin-2-ylbenzoyl)amino]ethoxy] phenyl]propionic acid; format: cell-based
T3 sequence (whole entry): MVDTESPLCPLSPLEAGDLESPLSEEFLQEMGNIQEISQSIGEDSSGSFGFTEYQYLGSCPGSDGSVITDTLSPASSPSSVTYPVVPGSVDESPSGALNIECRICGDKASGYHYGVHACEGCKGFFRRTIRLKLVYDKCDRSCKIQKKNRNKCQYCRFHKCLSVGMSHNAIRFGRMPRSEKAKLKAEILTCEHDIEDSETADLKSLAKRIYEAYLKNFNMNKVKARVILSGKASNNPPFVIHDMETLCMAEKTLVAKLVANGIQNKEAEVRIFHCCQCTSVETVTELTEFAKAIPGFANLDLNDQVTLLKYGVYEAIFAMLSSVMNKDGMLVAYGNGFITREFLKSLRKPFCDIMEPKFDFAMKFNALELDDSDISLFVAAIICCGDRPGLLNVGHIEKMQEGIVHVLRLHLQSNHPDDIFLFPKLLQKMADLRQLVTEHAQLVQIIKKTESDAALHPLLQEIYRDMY

[7] = target: T4, Peroxisome proliferator-activated receptor gamma (Homo sapiens) (UniProt P37231); experiment: Agonist activity at recombinant human GAL4-DBD fused PPARgamma LBD expressed in COS7 cells at 10 uM after 24 hrs by luciferase reporter gene assay relative to rosiglitazone; format: cell-based
T4 sequence (whole entry): T1 sequence (P37231 whole entry)

[8] = Aqueous thermodynamic solubility of the compound in pH 6.8 solution up to 4 hrs by HPLC-UV analysis; format: physicochemical; settings: read-out: Therm_solubility
[9] = target: T5, Peroxisome proliferator-activated receptor alpha (Homo sapiens, UniProt Q07869); experiment: Agonist activity at recombinant human GAL4-DBD fused PPARalpha LBD expressed in COS7 cells after 24 hrs by luciferase reporter gene assay; format: cell-based
T5 sequence (Q07869 whole entry): T3 sequence (whole entry)

| SMILES | remaining at 0.5 h [1] | EC50 [2] | Papp at 4 h [3] | logD at 0.5 h [4] | Activity [5] | Emax [6] | Emax [7] | solubility thermodynamic at 4 h [8] | EC50 [9] |
| --- | --- | --- | --- | --- | --- | --- | --- | --- | --- |
| Cc1ccc(Oc2ccc3nc(COc4cccc(C(=O)O)c4)n(C)c3n2)cc1F | 96% | 50 nM | 14.8 ×10⁻⁶ cm/s | 2.1 | inactive | 56% | 80% | 5.2 µg/mL (≈ 12.8 µM) |  |
| Cn1c(COc2cccc(C(=O)O)c2)nc2ccc(Oc3cccc(Cl)n3)cc21 | 98% | 736 nM | 7.6 ×10⁻⁶ cm/s | 1.2 |  | 13% | 67% | 7.7 µg/mL (≈ 18.8 µM) | > 10000 nM |
| COC(=O)c1cccc(OCc2nc3ccc(Oc4ccccc4)nc3n2C)c1 |  | 12400 nM |  |  |  |  | 65% |  |  |
| Cn1c(COc2cccc(C(=O)O)c2)nc2ccc(Oc3cc(Cl)ccn3)cc21 |  | 615 nM | 10.3 ×10⁻⁶ cm/s | 1.2 |  | 11% | 93% | 11 µg/mL (≈ 26.8 µM) | > 10000 nM |
| Cc1ccc(Oc2ccc3nc(COc4cccc(C(=O)O)c4)n(C)c3n2)cc1C | 73% | 90 nM | 12.4 ×10⁻⁶ cm/s | 2.2 | inactive | 30% | 74% | 16 µg/mL (≈ 39.7 µM) | > 10000 nM |
| Cn1c(COc2cccc(C(=O)O)c2)nc2ccc(Oc3ccc(F)cc3)nc21 | 78% | 1060 nM | 8.6 ×10⁻⁶ cm/s | 1.5 | inactive | 55% | 62% | 11 µg/mL (≈ 28 µM) |  |
| Cc1cc(C)cc(Oc2ccc3nc(COc4cccc(C(=O)O)c4)n(C)c3n2)c1 | 71% | 41 nM | 17.4 ×10⁻⁶ cm/s | 2.3 | inactive | 19% | 83% | 0.5 µg/mL (≈ 1.24 µM) | > 10000 nM |
| Cn1c(COc2cccc(C(=O)O)c2)nc2ccc(Oc3ncccc3F)cc21 | 100% | 280 nM | 3.9 ×10⁻⁶ cm/s | 0.6 |  | 3% | 80% | 7.1 µg/mL (≈ 18 µM) | > 10000 nM |
| Cc1ccc(Oc2ccc3nc(COc4cccc(C(=O)O)c4)n(C)c3n2)c(C)c1 | 63% | 101 nM | 28.8 ×10⁻⁶ cm/s | 2.3 | inactive | 17% | 75% | 0.9 µg/mL (≈ 2.23 µM) | > 10000 nM |
| Cc1ccc(Oc2ccc3nc(COc4cccc(C(=O)O)c4)n(C)c3c2)nc1 | 94% | 129 nM | 4.8 ×10⁻⁶ cm/s | 0.9 |  | 4% | 42% | 31 µg/mL (≈ 79.6 µM) | > 10000 nM |
| Cn1c(COc2cccc(C(=O)O)c2)nc2cnc(Oc3ccc4c(c3)OCC4)cc21 | 100% | 335 nM | 3.6 ×10⁻⁶ cm/s | 0.6 | inactive | 4% | 59% | 79 µg/mL (≈ 189 µM) | > 10000 nM |
| Cn1c(COc2cccc(C(=O)O)c2)nc2ccc(Oc3ccccn3)cc21 | 100% | 1130 nM | 2.2 ×10⁻⁶ cm/s | 0.4 |  | 1% | 74% | 62 µg/mL (≈ 165 µM) | > 10000 nM |
